Counter-ions that a name gives are not always drawn.
These compounds were tested against T1, human leukocyte elastase (HLE) (Homo sapiens, UniProt P08246) (assay: Inhibition of human leukocyte elastase: rate of inactivation kon and inhibition constant Ki* (koff/kon)). Details: not given.
T1 sequence (P08246 30-267): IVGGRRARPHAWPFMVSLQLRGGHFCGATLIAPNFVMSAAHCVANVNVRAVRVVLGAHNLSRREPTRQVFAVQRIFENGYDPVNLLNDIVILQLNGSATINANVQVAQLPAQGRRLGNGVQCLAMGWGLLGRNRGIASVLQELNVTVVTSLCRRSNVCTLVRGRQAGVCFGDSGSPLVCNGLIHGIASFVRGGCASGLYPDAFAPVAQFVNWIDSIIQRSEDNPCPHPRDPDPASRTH
Type: biochemical

Which Ki does the source give for `CCOP(=O)(OCC)c1cccc(C(=O)OCN2C(=O)c3c(C(C)C)cc(OC)cc3S2(=O)=O)c1` [Example 1BE] here?
Its Ki is 64 pM.

Same assay, conditions: Ki* = koff/kon, calculated from measured koff and kon; not a truly reversible Ki; read-out: K*i

`CC(C)c1cccc2c1C(=O)N(COC(=O)c1c(Cl)ccc(O)c1Cl)S2(=O)=O` [Example 2A, 4-isopropyl-2-saccharinylmethyl 2,6-dichloro-3-hydroxybenzoate] was tested. Which Ki did it give?
Its Ki is 40 pM.

For `COc1cc(C(C)C)c2c(c1)S(=O)(=O)N(COC(=O)c1c(OC)cc(OCc3ccccc3)cc1OC)C2=O` [Example 1BP], which Ki is on record?
The Ki was 350 pM.

Which Ki does the source give for `CCOc1cc(C(C)C)c2c(c1)S(=O)(=O)N(COC(=O)c1c(Cl)cccc1Cl)C2=O` [Example 5A, 6-ethoxy-4-isopropyl-2-saccharinylmethyl 2,6-dichlorobenzoate] here?
Its Ki is 50 pM.

For `CC(C)c1cc(OCC2COC(C)(C)O2)cc2c1C(=O)N(COC(=O)c1c(Cl)cccc1Cl)S2(=O)=O` (centres unmarked) [Example 5C], which Ki is on record?
The Ki was 30 pM.

Which Ki does the source give for `O=C(OCN1C(=O)C2=C(C3CCC2C3)S1(=O)=O)c1c(Cl)cccc1Cl` (centres unmarked) [Example 8, 2-(2,6-dichlorobenzoyloxymethyl)4,5,6,7-tetrahydro-4,7-methano-1,2-benzisothiazol-3(2H)-one 1,1-dioxide] here?
The Ki was 600 pM.

Which Ki does the source give for `CC(C)c1cccc2c1C(=O)N(COC(=O)c1c(Cl)ccc(S(=O)(=O)N(C)CCN(C)C)c1Cl)S2(=O)=O` [Example 1AA] here?
Its Ki is 10 pM.

With `CC(C)c1cccc2c1C(=O)N(COC(=O)c1cc(Cl)ccc1Cl)S2(=O)=O` [Example 1M] as the compound, how does the Ki read?
Its Ki is 250 pM.

How did the Ki turn out when `CC(C)c1cccc2c1C(=O)N(COC(=O)c1c(Cl)ccc(OCCN(C)C)c1Cl)S2(=O)=O` [Example 1AE] was run?
Its Ki is 9 pM.

How did the Ki turn out when `CCc1c(OC)cc(OC)c2c1C(=O)N(COC(=O)c1c(Cl)cccc1Cl)S2(=O)=O` [Example 1AY] was run?
Its Ki is 900 pM.

How did the Ki turn out when `CC(C)c1cc(OCC(=O)OCc2ccccc2)cc2c1C(=O)N(COC(=O)c1c(Cl)cccc1Cl)S2(=O)=O` [Example 7B, 6-(2-benzyloxy-2-oxoethoxy)-4-isopropyl-2-saccharinylmethyl 2,6-dichlorobenzoate] was run?
The Ki was 56 pM.

For `COc1cc(C(C)C)c2c(c1)S(=O)(=O)N(COC(=O)c1ccccc1C(C)C)C2=O` [Example 1BS], which Ki is on record?
Its Ki is 36 pM.

Which Ki does the source give for `CC(C)c1cccc2c1C(=O)N(COC(=O)c1c(Cl)ccc(S(=O)(=O)N3CCOCC3)c1Cl)S2(=O)=O` [Example 1U] here?
Its Ki is 10 pM.

`CC(C)c1cccc2c1C(=O)N(COC(=O)c1c(Cl)ccc(S(=O)(=O)N3CCN(Cc4ccccc4)CC3)c1Cl)S2(=O)=O` [Example 1Z, 4-isopropyl-2-saccharinylmethyl 2,6-dichloro-3-(4-benzyl-1-piperazinyl-sulfonyl)benzoate] was tested. Which Ki did it give?
Its Ki is 60 pM.

How did the Ki turn out when `CC(C)c1cccc2c1C(=O)N(COC(=O)c1c(Cl)cc(OCCN3CCOCC3)cc1Cl)S2(=O)=O` [Example 1BY] was run?
The Ki was 25 pM.

`CC(C)c1cccc2c1C(=O)N(COC(=O)c1c3ccccc3cc3ccccc13)S2(=O)=O` [Example 1L] was tested. Which Ki did it give?
The Ki was 300 pM.

With `COc1cc(C(C)C)c2c(c1)S(=O)(=O)N(COC(=O)c1c(C)cc(OCc3ccccc3)cc1C)C2=O` [Example 1BZ] as the compound, how does the Ki read?
The Ki was 300 pM.

How did the Ki turn out when `COc1cc(Cl)c(C(=O)OCN2C(=O)c3c(C(C)C)cccc3S2(=O)=O)c(Cl)c1` [Example 1AC] was run?
Its Ki is 25 pM.

For `COc1cc(C(C)C)c2c(c1OC)S(=O)(=O)N(COC(=O)c1c(Cl)cccc1Cl)C2=O` [Example 1BF], which Ki is on record?
The Ki was 2000 pM.

`COCC(COc1cc(C(C)C)c2c(c1)S(=O)(=O)N(COC(=O)c1c(Cl)cccc1Cl)C2=O)OC` (racemic) [Example 5F] was tested. Which Ki did it give?
Its Ki is 27 pM.

How did the Ki turn out when `CC(C)c1cc(OCC(=O)OC(C)(C)C)cc2c1C(=O)N(COC(=O)c1c(Cl)cccc1Cl)S2(=O)=O` [Example 7A, 6-(2-t-butoxy-2-oxoethoxy)-4-isopropyl-2-saccharinylmethyl 2,6-dichlorobenzoate] was run?
The Ki was 80 pM.

Which Ki does the source give for `CC(C)c1cc(O)cc2c1C(=O)N(COC(=O)c1c(Cl)cccc1Cl)S2(=O)=O` [Example 1C, 4-isopropyl-6-hydroxysaccharinylmethyl 2,6-dichlorobenzoate] here?
The Ki was 400 pM.

How did the Ki turn out when `COc1cc2c(c(C(C)C)c1OC)C(=O)N(COC(=O)c1c(Cl)cccc1Cl)S2(=O)=O` [Example 1BB] was run?
The Ki was 350 pM.

With `O=C(OCN1C(=O)c2ccccc2S1(=O)=O)c1c2ccccc2cc2ccccc12` [Example 1AM] as the compound, how does the Ki read?
The Ki was 2100 pM.

How did the Ki turn out when `COC(=O)COc1cc(C(C)C)c2c(c1)S(=O)(=O)N(COC(=O)c1c(Cl)cccc1Cl)C2=O` [Example 5E] was run?
Its Ki is 17 pM.

For `COc1cc(C(C)C)c2c(c1)S(=O)(=O)N(COC(=O)c1c(OC)cccc1OC)C2=O` [Example 1BK], which Ki is on record?
Its Ki is 88 pM.

How did the Ki turn out when `CC(C)Oc1cc(C(C)C)c2c(c1)S(=O)(=O)N(COC(=O)c1c(Cl)cccc1Cl)C2=O` [Example 5B] was run?
Its Ki is 57 pM.

With `CC(C)c1cc2c(c3c1C(=O)N(COC(=O)c1c(Cl)ccc(OCCN4CCOCC4)c1Cl)S3(=O)=O)OCO2` [Example 1BJ] as the compound, how does the Ki read?
Its Ki is 29 pM.

With `COc1cc(OC)c(C(=O)OCN2C(=O)c3c(C(C)C)cc(OC)cc3S2(=O)=O)c(OC)c1` [Example 1BO] as the compound, how does the Ki read?
The Ki was 50 pM.

Which Ki does the source give for `CC(C)C1CCCC2=C1C(=O)N(COC(=O)c1c(Cl)ccc(S(=O)(=O)N(C)CCN(C)C)c1Cl)S2(=O)=O` (centres unmarked) [Example 9E, 4-isopropyl-4,5,6,7-tetrahydro-2-saccharinylmethyl 2,6-dichloro-3-[[2-(N,N-dimethylamino)ethyl]-N-methylaminosulfonyl]benzoate hydrochoride] here?
The Ki was 2000 pM.

For `CC(C)c1cccc2c1C(=O)N(COC(=O)c1c(Cl)ccc(OCC(=O)O)c1Cl)S2(=O)=O` [Example 3, 4-isopropyl-2-saccharinylmethyl 2,6-dichloro-3-carboxymethoxybenzoate], which Ki is on record?
The Ki was 10 pM.

`CC(C)c1cccc2c1C(=O)N(COC(=O)c1c(Cl)ccc(S(=O)(=O)N(C)CCCN(C)C)c1Cl)S2(=O)=O` [Example 1AF] was tested. Which Ki did it give?
The Ki was 10 pM.

How did the Ki turn out when `COc1cc(C(C)C)c2c(c1)S(=O)(=O)N(COC(=O)c1c(Cl)ccc(OCCN(C)C)c1Cl)C2=O` [Example 1AS] was run?
Its Ki is 13 pM.

With `CC(C)c1cccc2c1C(=O)N(COC(=O)c1cccc(OCc3ccccc3)c1)S2(=O)=O` [Example 1X] as the compound, how does the Ki read?
Its Ki is 500 pM.

`CC(C)c1cccc2c1C(=O)N(COC(=O)c1ccc(Cl)cc1Cl)S2(=O)=O` [Example 1AO] was tested. Which Ki did it give?
The Ki was 1000 pM.

`CCOc1cc(C(C)C)c2c(c1)S(=O)(=O)N(COC(=O)c1c(Cl)ccc(OCCN3CCOCC3)c1Cl)C2=O` [Example 1AX] was tested. Which Ki did it give?
Its Ki is 33 pM.

With `CN(C)c1cccc2c1C(=O)N(COC(=O)c1c(Cl)cccc1Cl)S2(=O)=O` [Example 11, 4-dimethylamino-2-saccharinylmethyl 2,6-dichlorobenzoate] as the compound, how does the Ki read?
The Ki was 200 pM.

How did the Ki turn out when `COc1ccc(C(=O)OCN2C(=O)c3ccccc3S2(=O)=O)c(OC)c1` [Example 1E] was run?
Its Ki is 18000 pM.

Which Ki does the source give for `CC(C)c1cccc2c1C(=O)N(COC(=O)c1c(Cl)ccc(S(=O)(=O)N3CCN(C)CC3)c1Cl)S2(=O)=O` [Example 1V] here?
Its Ki is 7 pM.

With `CC(C)c1cccc2c1C(=O)N(COC(=O)c1c(Cl)ccc(S(=O)(=O)NCC(=O)O)c1Cl)S2(=O)=O` [Example 1W] as the compound, how does the Ki read?
Its Ki is 10 pM.

For `COc1cc(F)c(C(=O)OCN2C(=O)c3c(C(C)C)cc(OC)cc3S2(=O)=O)c(F)c1` [Example 1BQ], which Ki is on record?
The Ki was 68 pM.

`CC(C)c1cc2c(c3c1C(=O)N(COC(=O)c1c(Cl)cccc1Cl)S3(=O)=O)OCO2` [Example 1BG] was tested. Which Ki did it give?
Its Ki is 43 pM.

How did the Ki turn out when `O=C(O)CNS(=O)(=O)c1ccc(Cl)c(C(=O)OCN2C(=O)c3ccccc3S2(=O)=O)c1Cl` [Example 1T] was run?
Its Ki is 4000 pM.

With `CC(C)c1cc(OCC(O)CO)cc2c1C(=O)N(COC(=O)c1c(Cl)cccc1Cl)S2(=O)=O` (centres unmarked) [Example 6, 6-(2,3-dihydroxypropoxy)-4-isopropylsaccharinylmethyl 2,6-dichlorobenzoate] as the compound, how does the Ki read?
Its Ki is 16 pM.

Which Ki does the source give for `CC(C)c1cccc2c1C(=O)N(COC(=O)c1c(Cl)ccc(OCc3ccccc3)c1Cl)S2(=O)=O` [Example 1Y] here?
The Ki was 120 pM.

With `CCCc1c(OC)c(OC)cc2c1C(=O)N(COC(=O)c1c(Cl)ccc(OCCN3CCOCC3)c1Cl)S2(=O)=O` [Example 1BD] as the compound, how does the Ki read?
The Ki was 70 pM.

How did the Ki turn out when `CC(C)c1cc2c(c3c1C(=O)N(COC(=O)c1c(Cl)ccc(S(=O)(=O)N4CCN(C)CC4)c1Cl)S3(=O)=O)OCO2` [Example 1BI] was run?
The Ki was 29 pM.

For `COc1cc(C(C)C)c2c(c1OC)S(=O)(=O)N(COC(=O)c1c(Cl)ccc(S(=O)(=O)N3CCN(C)CC3)c1Cl)C2=O` [Example 1BH], which Ki is on record?
The Ki was 600 pM.

How did the Ki turn out when `O=C(OCN1C(=O)c2ccccc2S1(=O)=O)c1c(Cl)ccc(S(=O)(=O)N2CCOCC2)c1Cl` [Example 1S] was run?
The Ki was 2000 pM.

`CCCc1c(OC)c(OC)cc2c1C(=O)N(COC(=O)c1c(Cl)cccc1Cl)S2(=O)=O` [Example 1BA] was tested. Which Ki did it give?
The Ki was 78 pM.

How did the Ki turn out when `CC(C)c1cccc2c1C(=O)N(COC(=O)c1cccc3ccccc13)S2(=O)=O` [Example 1I] was run?
Its Ki is 480 pM.

With `CC(C)c1cc(-c2cccn2C)cc2c1C(=O)N(COC(=O)c1c(Cl)cccc1Cl)S2(=O)=O` [Example 5J, 4-isopropyl-6-[2-[1-methyl]pyrrolidinyl]saccharinylmethyl 2,6-dichlorobenzoate] as the compound, how does the Ki read?
Its Ki is 200 pM.

With `Cc1cccc(C)c1C(=O)OCN1C(=O)c2c(C(C)C)cccc2S1(=O)=O` [Example 1K] as the compound, how does the Ki read?
Its Ki is 90 pM.

For `COc1cc(C(C)C)c2c(c1)S(=O)(=O)N(COC(=O)c1c(C)cccc1C)C2=O` [Example 1BM], which Ki is on record?
The Ki was 80 pM.

`CC(C)c1cc(OC2CCC2)cc2c1C(=O)N(COC(=O)c1c(Cl)cccc1Cl)S2(=O)=O` [Example 5G] was tested. Which Ki did it give?
Its Ki is 54 pM.

Which Ki does the source give for `CC(C)c1cccc2c1C(=O)N(COC(=O)c1c(Cl)ccc(S(=O)(=O)N3CCNCC3)c1Cl)S2(=O)=O` [Example 2B, 4-isopropyl-2-saccharinylmethyl 2,6-dichloro-3-(1-piperazinylsulfonyl)benzoate hydrochloride] here?
Its Ki is 20 pM.

With `COc1cc(C(C)C)c2c(c1)S(=O)(=O)N(COC(=O)c1c(Cl)ccc(OCCN3CCCCC3)c1Cl)C2=O` [Example 1AU] as the compound, how does the Ki read?
Its Ki is 30 pM.

`O=C(OCN1C(=O)c2ccccc2S1(=O)=O)c1cccc2ccccc12` [Example 1F] was tested. Which Ki did it give?
Its Ki is 3000 pM.

With `COc1cc(C(C)C)c2c(c1)S(=O)(=O)N(COC(=O)c1c(Cl)ccc(S(=O)(=O)NCC(=O)O)c1Cl)C2=O` [Example 2D, 4-isopropyl-6-methoxy-2-saccharinylmethyl 2,6-dichloro-3-carboxymethylamino-sulfonylbenzoate] as the compound, how does the Ki read?
Its Ki is 8 pM.

— EP0483928A1, “2-Saccharinylmethyl aryl carboxylates useful as proteolytic enzyme inhibitors and compositions and method of use” (STERLING WINTHROP INC., priority 1990, dated 1992)
